Source: US4678782A, “3S-formamido azetidinone antibacterial agents, their preparation and use” (Beecham Group p.l.c., priority 1982, dated 1987)

How the values were obtained:
Format in all cases: cell-based
[1] = test system: E. coli JT4; test: standard microtitre (MIC) test, E. coli JT4; conditions: Escherichia coli
Description: (§1) In a standard microtitre (MIC) test, the compound of Example 14 gave the following data: […]

[2] = test system: E. coli NCTC 10418; test: standard microtitre (MIC) test, E. coli NCTC 10418; conditions: Escherichia coli, NCTC10418
Description: as §1

[3] = test system: S. marcescens US32; test: standard microtitre (MIC) test, S. marcescens US32; conditions: Serratia marcescens
Description: as §1

[4] = test system: K. aerogenes A; test: standard microtitre (MIC) test, K. aerogenes A; conditions: Klebsiella aerogenes
Description: as §1

[5] = test system: E. cloacae N1; test: standard microtitre (MIC) test, E. cloacae N1; conditions: Enterobacter cloacae
Description: as §1

[6] = test system: P. morganii; test: standard microtitre (MIC) test, P. morganii; conditions: Morganella morganii
Description: as §1

[7] = test system: S. aureus Russell; test: standard microtitre (MIC) test, S. aureus Russell; conditions: Staphylococcus aureus
Description: as §1

- MIC [1]: 25 µg/mL
- MIC [2]: 12.5 µg/mL
- MIC [3]: 12.5 µg/mL
- MIC [4]: 3.2 µg/mL
- MIC [5]: 12.5 µg/mL
- MIC [6]: 6.4 µg/mL
- MIC [7]: 3.2 µg/mL
Structure (SMILES): CCN1CCN(C(=O)N[C@@H](C(=O)NC2(NC=O)CN(S(=O)(=O)O)C2=O)c2ccccc2)C(=O)C1=O (stereo partly drawn) [Example 14, (3RS)-Potassium-3-[D-2-(4-Ethyl-2,3-dioxopiperazin-1-yl-carboxamido)-2-phenylacetamido]-3-formamido-2-oxo-azetidine-1-sulphonate]
